Among the data in ChEMBL document CHEMBL1133082, “Adenosine kinase inhibitors. 2. Synthesis, enzyme inhibition, and antiseizure activity of diaryltubercidin analogues” (J Med Chem, 2000) are ED50, inhibition in vivo and IC50 values, retold here.

Experiment [1] concerns Rattus norvegicus. The experiment can be described thus: Intraperitoneal effective dose required for inhibition of MES-induced seizures in rat. The conditions noted are these: ip. The format is functional.
In experiment [2] the test system is Rattus norvegicus. The experiment can be described thus: Tested for inhibition of MES-induced seizures in rat after ip administration of 5 mg/kg. In kind it is functional. The conditions noted are these: route intraperitoneal.
Experiment [3] concerns the target Adenosine kinase (Homo sapiens, UniProt P55263). The experiment can be described thus: Inhibition of recombinant human adenosine kinase.

Adenosine kinase, sequence (P55263 whole entry): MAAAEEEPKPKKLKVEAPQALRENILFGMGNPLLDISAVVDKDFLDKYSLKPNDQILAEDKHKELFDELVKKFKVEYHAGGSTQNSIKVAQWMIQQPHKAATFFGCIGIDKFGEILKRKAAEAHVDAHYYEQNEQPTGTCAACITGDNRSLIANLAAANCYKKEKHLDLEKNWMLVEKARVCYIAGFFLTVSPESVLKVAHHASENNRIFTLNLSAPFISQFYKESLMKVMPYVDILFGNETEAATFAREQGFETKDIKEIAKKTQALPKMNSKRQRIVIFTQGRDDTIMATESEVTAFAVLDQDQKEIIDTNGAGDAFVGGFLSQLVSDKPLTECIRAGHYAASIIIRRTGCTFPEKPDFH

In general, ED50 refers to the dose at which the effect has come halfway, by size or by number of responders. A low value points to greater potency. A word on the inhibition in vivo: it is the change of the read-out against control, counted positive when it falls. The low end stands for a response near the control, the high end for a response far below the control. Usually IC50 stands for the concentration that inhibits the measured activity by half. In experiment [1], `COc1ccc(Nc2ncnc3c2c(-c2ccccc2)cn3[C@@H]2O[C@H](C)[C@@H](O)[C@H]2O)cc1` came in with an ED50 of 1 mg/kg. Also, in experiment [2], at 5 mg/kg the inhibition in vivo was 93%. Moreover, the IC50 in experiment [3] amounted to 0.006 µM. Take `C[C@H]1O[C@@H](n2cc(-c3ccccc3)c3c(NCc4ccccc4)ncnc32)[C@H](O)[C@@H]1O`: the IC50 in experiment [3] amounted to 0.03 µM. Same read-out and setting: to `C[C@H]1O[C@@H](n2cc(I)c3c(NCc4ccccc4)ncnc32)[C@H](O)[C@@H]1O` belongs 0.8 µM. In experiment [2], `C[C@H]1O[C@@H](n2cc(-c3ccccc3)c3c(Nc4ccc(C#N)cc4)ncnc32)[C@H](O)[C@@H]1O` displayed an inhibition in vivo at 5 mg/kg of 87%. The IC50 in experiment [3] amounted to 0.014 µM. As for `OC[C@H]1O[C@@H](n2cc(-c3ccccc3)c3c(Nc4ccccc4)ncnc32)C[C@@H]1O`, the IC50 in experiment [3] was determined as 0.3 µM. Turning to `C[C@H]1O[C@@H](n2cc(-c3ccccc3)c3c(Nc4ccc(F)cc4)ncnc32)[C@H](O)[C@@H]1O`, in experiment [2], at 5 mg/kg the inhibition in vivo was 73%.

In the case of `OC[C@H]1O[C@@H](n2ccc3c(Nc4ccccc4)ncnc32)[C@H](O)[C@@H]1O`, the IC50 in experiment [3] was found to be 1.25 µM.

`C[C@H]1O[C@@H](n2cc(-c3ccccc3)c3c(Nc4ccc(O)cc4)ncnc32)[C@H](O)[C@@H]1O` displayed an ED50 in experiment [1] of 5.8 mg/kg. In experiment [2], this compound yielded an inhibition in vivo at 5 mg/kg of 35%. The IC50 in experiment [3] turned out to be 0.001 µM.
